Source: patent US20200108043A1, “COMPOUNDS AND COMPOSITIONS FOR EXTENDING LIFESPAN OF A SUBJECT” (YALE UNIVERSITY, priority 2017, published 2020)
Entries after “also recorded” stand apart in the source; their conditions may differ.

Legend:
C. elegans = test: Roundworm (C. elegans) lifespan extension; format: in vivo, Caenorhabditis elegans; conditions: 10 μM in NGM plates, treated for duration of lifespan, vs control
Method: Synchronized animals were obtained using the egg-laying method, allowing young […] eggs for 4 hours on bacteria-seeded plates. For each treatment group, 120 synchronized day-1 adults were used. All experiments were carried out at 20° C. Treatment groups were blinded. Nematode growth media (NGM) plates were made for each treatment group: Negative control (DMSO), Mycophenolic Acid (10 μM in DMSO), and Terreic Acid (10 μM in DMSO). The compounds were added to NGM media before pouring the plates. The plates were then dried overnight before moving them to 4° C. to prevent degradation of the compounds. Plates were seeded with 100 μL of 10× concentrated OP50 E. coli, and dried overnight at room temperature. Plates were UV treated with a UVP CL-1000 Ultraviolet Crosslinker, run twice on the energy setting ‘9999’ for about 5 minutes each run. Worms were transferred to new plates every 2-4 days. Viability was scored every day, with death determined by lack of response to a platinum wire. Missing worms, or those that died due to internal hatching were censored.

proteasome = biological target: T1, proteasome (Saccharomyces cerevisiae, UniProt P30656); test: Proteasome assay with fluorogenic substrate Suc-LLVY-AMC on yeast protein extracts; format: biochemical; conditions: wild-type (BY4741) cells, presence vs absence of MPA
T1 construct: with 50 μg of total protein in 200 μL of lysis buffer; endogenous in cells; host or cells: S. cerevisiae BY4741 wild-type or ΔUBR2 cells, glass-bead lysate (total protein extract)
Method: For protein extraction, 50 mL of cells were grown for 18 hours to an OD600 of approximately 0.8, then transferred to a 50 mL conical tube and centrifuged at 4255×g for 5 minutes at room temperature. The supernatant was discarded, and the cells were re-suspended in 150 μL of cold lysis buffer (50 mM Tris-HCl, pH 7.5, 0.5 mM EDTA, 5 mM MgCl2, with complete ULTRA mini protease inhibitor tablets, EDTA free) and transferred to a 1.5 mL tube. A ¼ volume of 500-750 μm glass beads (Acros Organics 397641000) was added to each tube. For 10 rounds, the tubes were chilled in ice water for 1 minute, then vortexed at maximum speed for 30 seconds to physically rupture the cells, and returned to the ice water. Samples were then spun for 3 minutes at 2500×g and 4° C., and the supernatant was transferred to a fresh tube. The solution was further clarified by centrifugation at 8000×g for 10 minutes at 4° C., and the supernatant was transferred to a fresh tube. Protein concentration was measured using a Nanodrop measuring the absorbance of the sample at 280 nm.
The proteasome assay used was described in Kruegel, et al. PLoS Genet. 7, (2011). The assay was performed in a 96-well clear-bottom plate (Costar 3603) with 50 μg of total protein in 200 μL of lysis buffer. The fluorogenic proteasome substrate Suc-LLVY-AMC (Bachem 1-1395) was added to a final concentration of 100 μM. Fluorescence intensity with an excitation wavelength of 380 nm and an emission wavelength of 460 nm was recorded at 5-minute intervals using a Neo2 plate reader (BioTek) set to mix constantly and maintain 30° C. Negative control reactions were performed in the presence of 50 μM MG132 (Sigma 474787), a proteasome inhibitor.

Saccharomyces cerevisiae = test: High-Life (High throughput replicative Lifespan measurement) flow cytometry assay in MEP yeast; format: cell-based; conditions: fresh samples from secondary source, 24 hours of culture

COc1c(C)c2c(c(O)c1C/C=C(\C)CCC(=O)O)C(=O)OC2 [mycophenolic acid]
lifespan of C. elegans (C. elegans): measurable extension of lifespan; also recorded: statistically significant lifespan extension
proteasome activity in wild-type cells (proteasome): did not activate the proteasome
dose-response: cell survival in High-Life (Saccharomyces cerevisiae): clear concentration-dependent effects
